Measurements as given in ChEMBL document CHEMBL1132884, “Carbonic anhydrase inhibitors: synthesis of N-morpholylthiocarbonylsulfenylamino aromatic/heterocyclic sulfonamides and their interaction with isozymes I, II and IV” (Bioorg Med Chem Lett, 2000).
One block for each molecule: values may come before it.

Assays:
CAKI-1 = experiment: Compound was tested in vitro for its antitumor activity against renal cancer cell line CAKI-I (50% growth inhibition of tumor cells after 48 hr exposure ); type: functional; settings: Homo sapiens, CAKI-1, 48 h
NCI-H522 = experiment: Compound was tested in vitro for its antitumor activity against non-small cell lung cancer cell line NCI-H522 (50% growth inhibition of tumor cells after 48 hr exposure ); type: functional; settings: Homo sapiens, NCI-H522, 48 h
COLO 205 = experiment: Compound was tested in vitro for its antitumor activity against colon cancer cell line COLO-205 (50% growth inhibition of tumor cells after 48 hr exposure ); type: functional; settings: Homo sapiens, COLO 205, 48 h
786-0 = experiment: Compound was tested in vitro for its antitumor activity against renal cancer cell line […] (50% growth inhibition of tumor cells after 48 hr exposure ); type: functional; settings: Homo sapiens, 786-0, 48 h
PC-3 = experiment: Compound was tested in vitro for its antitumor activity against prostate cancer cell line PC-3 (50% growth inhibition of tumor cells after 48 hr exposure ); type: functional; settings: Homo sapiens, PC-3, 48 h
LOX IMVI = experiment: Compound was tested in vitro for its antitumor activity against melanoma cell line LOX IMVI (50% growth inhibition of tumor cells after 48 hr exposure ); type: functional; settings: Homo sapiens
SF-268 = experiment: Compound was tested in vitro for its antitumor activity against CNS cancer cell line SF-268 (50% growth inhibition of tumor cells after 48 hr exposure ); type: functional; settings: Homo sapiens, SF-268, 48 h
Carbonic anhydrase 4 = target: T1, Carbonic anhydrase 4 (Bos taurus, UniProt Q95323)
T1 sequence (Q95323 whole entry): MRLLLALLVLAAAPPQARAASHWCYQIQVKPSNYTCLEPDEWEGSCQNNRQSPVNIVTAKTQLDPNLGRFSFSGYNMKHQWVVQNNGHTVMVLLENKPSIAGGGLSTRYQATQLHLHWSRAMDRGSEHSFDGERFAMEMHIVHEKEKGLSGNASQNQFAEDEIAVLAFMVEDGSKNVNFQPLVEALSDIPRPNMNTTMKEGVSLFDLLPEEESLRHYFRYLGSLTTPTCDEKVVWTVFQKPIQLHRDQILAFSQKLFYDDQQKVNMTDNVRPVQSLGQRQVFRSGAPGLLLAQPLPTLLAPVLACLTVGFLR
Description: Inhibition of bovine carbonic anhydrase IV from bovine lung microsomes

HCT-15 = experiment: Compound was tested in vitro for its antitumor activity against colon cancer cell line HCT-15 (50% growth inhibition of tumor cells after 48 hr exposure ); type: functional; settings: Homo sapiens, HCT-15, 48 h
ACHN = experiment: Compound was tested in vitro for its antitumor activity against renal cancer cell line ACHN (50% growth inhibition of tumor cells after 48 hr exposure ); type: functional; settings: Homo sapiens
MDA-N = experiment: Compound was tested in vitro for its antitumor activity against breast cancer cell line MDA-N (50% growth inhibition of tumor cells after 48 hr exposure ); type: functional; settings: Homo sapiens
MCF7 = experiment: Compound was tested in vitro for its antitumor activity against breast cancer cell line MCF-7 (50% growth inhibition of tumor cells after 48 hr exposure ); type: functional; settings: Homo sapiens, MCF7, 48 h
SK-MEL-2 = experiment: Compound was tested in vitro for its antitumor activity against melanoma cell line SK-MEL-2 (50% growth inhibition of tumor cells after 48 hr exposure ); type: functional; settings: Homo sapiens, SK-MEL-2, 48 h
Carbonic anhydrase 2 = Carbonic anhydrase 2 (Homo sapiens, UniProt P00918)
Description: Inhibition of human carbonic anhydrase II (hCA II)

SR = experiment: Compound was tested in vitro for its antitumor activity against leukemia cell line SR (50% growth inhibition of tumor cells after 48 hr exposure ); type: functional; settings: Homo sapiens
M14 = experiment: Compound was tested in vitro for its antitumor activity against melanoma cell line M14 (50% growth inhibition of tumor cells after 48 hr exposure ); type: functional; settings: Homo sapiens, M14, 48 h
OVCAR-4 = experiment: Compound was tested in vitro for its antitumor activity against ovarian cancer cell line OVCAR-4 (50% growth inhibition of tumor cells after 48 hr exposure ); type: functional; settings: Homo sapiens, OVCAR-4, 48 h
MOLT-4 = experiment: Compound was tested in vitro for its antitumor activity against leukemia cell line MOLT-4 (50% growth inhibition of tumor cells after 48 hr exposure ); type: functional; settings: Homo sapiens, MOLT-4, 48 h
IGROV-1 = experiment: Compound was tested in vitro for its antitumor activity against ovarian cancer cell line IGROVI (50% growth inhibition of tumor cells after 48 hr exposure ); type: functional; settings: Homo sapiens, IGROV-1, 48 h
Carbonic anhydrase 1 = Carbonic anhydrase 1 (Homo sapiens, UniProt P00915)
Description: Inhibition of human carbonic anhydrase I (CAI)

HL-60 = experiment: Compound was tested in vitro for its antitumor activity against leukemia cell line HL-60(50% growth inhibition of tumor cells after 48 hr exposure ); type: functional; settings: Homo sapiens, HL-60, 48 h
SF-295 = experiment: Compound was tested in vitro for its antitumor activity against CNS cancer cell line SF-295 (50% growth inhibition of tumor cells after 48 hr exposure ); type: functional; settings: Homo sapiens, SF-295, 48 h
A549 = experiment: Compound was tested in vitro for its antitumor activity against non-small cell lung cancer cell line A549/ATCC(50% growth inhibition of tumor cells after 48 hr exposure ); type: functional; settings: Homo sapiens, A549, 48 h
DU-145 = experiment: Compound was tested in vitro for its antitumor activity against prostate cancer cell line DU-145 (50% growth inhibition of tumor cells after 48 hr exposure ); type: functional; settings: Homo sapiens, DU-145, 48 h
HOP-62 = experiment: Compound was tested in vitro for its antitumor activity against non-small cell lung cancer cell line HOP-62(50% growth inhibition of tumor cells after 48 hr exposure ); type: functional; settings: Homo sapiens, HOP-62, 48 h

Chain of Carbonic anhydrase 1 (P00915 whole entry): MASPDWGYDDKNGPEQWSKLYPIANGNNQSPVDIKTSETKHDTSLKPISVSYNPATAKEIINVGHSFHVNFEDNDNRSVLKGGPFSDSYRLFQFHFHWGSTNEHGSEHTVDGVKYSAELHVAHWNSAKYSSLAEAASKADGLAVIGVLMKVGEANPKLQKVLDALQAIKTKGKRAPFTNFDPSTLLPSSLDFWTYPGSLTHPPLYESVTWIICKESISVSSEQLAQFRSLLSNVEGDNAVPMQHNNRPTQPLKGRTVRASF

SMILES: NS(=O)(=O)c1ccc(CCNSC(=S)N2CCOCC2)cc1
GI50 (CAKI-1): 9000 nM
GI50 (NCI-H522): 75 nM
GI50 (COLO 205): 21000 nM
GI50 (786-0): 11000 nM
GI50 (PC-3): 11000 nM
GI50 (LOX IMVI): 5000 nM
GI50 (SF-268): 90000 nM
Ki (Carbonic anhydrase 4): 24 nM
GI50 (HCT-15): > 100000 nM
GI50 (ACHN): 15000 nM
GI50 (MDA-N): 13000 nM
GI50 (MCF7): 26 nM
GI50 (SK-MEL-2): 5000 nM
Ki (Carbonic anhydrase 2): 8 nM
GI50 (SR): < 10 nM
GI50 (M14): 8000 nM
GI50 (OVCAR-4): 61000 nM
GI50 (MOLT-4): 54000 nM
GI50 (IGROV-1): 90 nM
Ki (Carbonic anhydrase 1): 360 nM
GI50 (HL-60): 70 nM
GI50 (SF-295): > 100000 nM
GI50 (A549): 11000 nM
GI50 (DU-145): 10000 nM
GI50 (HOP-62): 62000 nM

SMILES: Cn1nc(S(N)(=O)=O)s/c1=N/S(=O)(=O)c1ccc(NSC(=S)N2CCOCC2)cc1
Ki (Carbonic anhydrase 4): 1.3 nM
Ki (Carbonic anhydrase 2): 0.5 nM
Ki (Carbonic anhydrase 1): 2 nM

SMILES: NS(=O)(=O)c1nnc(NC(=O)CCNSC(=S)N2CCOCC2)s1
Ki (Carbonic anhydrase 4): 21 nM
Ki (Carbonic anhydrase 2): 2 nM
Ki (Carbonic anhydrase 1): 105 nM

SMILES: NS(=O)(=O)c1ccc(NS(=O)(=O)c2ccc(NSC(=S)N3CCOCC3)cc2)cc1
Ki (Carbonic anhydrase 4): 10 nM
Ki (Carbonic anhydrase 2): 3 nM
Ki (Carbonic anhydrase 1): 30 nM

SMILES: NS(=O)(=O)c1ccc(NSC(=S)N2CCOCC2)cc1
GI50 (CAKI-1): 30000 nM
GI50 (NCI-H522): 420 nM
GI50 (COLO 205): 32000 nM
GI50 (786-0): 12000 nM
GI50 (PC-3): 24000 nM
GI50 (LOX IMVI): 34000 nM
GI50 (SF-268): 58000 nM
Ki (Carbonic anhydrase 4): 100 nM
GI50 (HCT-15): 68000 nM
GI50 (ACHN): 31000 nM
GI50 (MDA-N): 61000 nM
GI50 (MCF7): 33 nM
GI50 (SK-MEL-2): 31000 nM
Ki (Carbonic anhydrase 2): 36 nM
GI50 (SR): 200 nM
GI50 (M14): 14000 nM
GI50 (OVCAR-4): > 100000 nM
GI50 (MOLT-4): 10000 nM
GI50 (IGROV-1): 70000 nM
Ki (Carbonic anhydrase 1): 9000 nM
GI50 (HL-60): 86 nM
GI50 (SF-295): 44000 nM
GI50 (A549): 46000 nM
GI50 (DU-145): 80000 nM
GI50 (HOP-62): 78000 nM

SMILES: NS(=O)(=O)c1ccc(NSC(=S)N2CCOCC2)c(Cl)c1
Ki (Carbonic anhydrase 4): 94 nM
Ki (Carbonic anhydrase 2): 40 nM
Ki (Carbonic anhydrase 1): 800 nM

SMILES: CCN(C)C(=S)SNCc1ccc(S(N)(=O)=O)cc1
Ki (Carbonic anhydrase 4): 41 nM
Ki (Carbonic anhydrase 2): 13 nM
Ki (Carbonic anhydrase 1): 950 nM

SMILES: CCN(C)C(=S)SNc1ccc(S(N)(=O)=O)cc1
Ki (Carbonic anhydrase 4): 140 nM
Ki (Carbonic anhydrase 2): 48 nM
Ki (Carbonic anhydrase 1): 15000 nM

SMILES: NS(=O)(=O)c1ccc(NSC(=S)N2CCOCC2)c(Br)c1
Ki (Carbonic anhydrase 4): 96 nM
Ki (Carbonic anhydrase 2): 48 nM
Ki (Carbonic anhydrase 1): 2400 nM

SMILES: NS(=O)(=O)c1cc(S(N)(=O)=O)c(NSC(=S)N2CCOCC2)c(Cl)c1Cl
Ki (Carbonic anhydrase 4): 49 nM
Ki (Carbonic anhydrase 2): 18 nM
Ki (Carbonic anhydrase 1): 500 nM

SMILES: NS(=O)(=O)c1ccc(CNSC(=S)N2CCOCC2)cc1
GI50 (CAKI-1): 17000 nM
GI50 (NCI-H522): 19 nM
GI50 (COLO 205): 30000 nM
GI50 (786-0): 10000 nM
GI50 (PC-3): 12000 nM
GI50 (LOX IMVI): 12000 nM
GI50 (SF-268): 16000 nM
Ki (Carbonic anhydrase 4): 35 nM
GI50 (HCT-15): 24000 nM
GI50 (ACHN): 15000 nM
GI50 (MDA-N): 15000 nM
GI50 (MCF7): 30 nM
GI50 (SK-MEL-2): 12000 nM
Ki (Carbonic anhydrase 2): 10 nM
GI50 (SR): 150 nM
GI50 (M14): 10000 nM
GI50 (OVCAR-4): > 100000 nM
GI50 (MOLT-4): 9000 nM
GI50 (IGROV-1): 52000 nM
Ki (Carbonic anhydrase 1): 620 nM
GI50 (HL-60): 90 nM
GI50 (SF-295): 5400 nM
GI50 (A549): 38000 nM
GI50 (DU-145): 13000 nM
GI50 (HOP-62): 15000 nM

SMILES: NS(=O)(=O)c1nnc(NSC(=S)N2CCOCC2)s1
Ki (Carbonic anhydrase 4): 25 nM
Ki (Carbonic anhydrase 2): 6 nM
Ki (Carbonic anhydrase 1): 240 nM

SMILES: CCN(SC(=S)N1CCOCC1)C1CC(C)S(=O)(=O)c2sc(S(N)(=O)=O)cc21 (stereo not given)
Ki (Carbonic anhydrase 4): 22 nM
Ki (Carbonic anhydrase 2): 6 nM
Ki (Carbonic anhydrase 1): > 50000 nM

SMILES: NS(=O)(=O)c1nnc(NS(=O)(=O)c2ccc(NSC(=S)N3CCOCC3)cc2)s1
Ki (Carbonic anhydrase 4): 4 nM
Ki (Carbonic anhydrase 2): 1.4 nM
Ki (Carbonic anhydrase 1): 5 nM

Second part, the molecule after the results:

Ki (Carbonic anhydrase 4): 500 nM
Ki (Carbonic anhydrase 2): 780 nM
Ki (Carbonic anhydrase 1): 11500 nM
SMILES: NS(=O)(=O)c1ccccc1NSC(=S)N1CCOCC1

Ki (Carbonic anhydrase 4): 650 nM
Ki (Carbonic anhydrase 2): 790 nM
Ki (Carbonic anhydrase 1): 24000 nM
SMILES: NS(=O)(=O)c1ccc(NNSC(=S)N2CCOCC2)cc1

Ki (Carbonic anhydrase 4): 26 nM
Ki (Carbonic anhydrase 2): 6 nM
Ki (Carbonic anhydrase 1): 200 nM
SMILES: Cn1nc(S(N)(=O)=O)s/c1=N/SC(=S)N1CCOCC1

Ki (Carbonic anhydrase 4): 120 nM
Ki (Carbonic anhydrase 2): 33 nM
Ki (Carbonic anhydrase 1): 760 nM
SMILES: NS(=O)(=O)c1ccc(NSC(=S)N2CCOCC2)c(F)c1

Ki (Carbonic anhydrase 4): 290 nM
Ki (Carbonic anhydrase 2): 150 nM
Ki (Carbonic anhydrase 1): 10000 nM
SMILES: NS(=O)(=O)c1cccc(NSC(=S)N2CCOCC2)c1

Ki (Carbonic anhydrase 4): 10 nM
Ki (Carbonic anhydrase 2): 7 nM
Ki (Carbonic anhydrase 1): 31 nM
SMILES: NS(=O)(=O)c1cccc(NS(=O)(=O)c2ccc(NSC(=S)N3CCOCC3)cc2)c1

Ki (Carbonic anhydrase 4): 30 nM
Ki (Carbonic anhydrase 2): 11 nM
Ki (Carbonic anhydrase 1): 630 nM
SMILES: CCN(C)C(=S)SNCCc1ccc(S(N)(=O)=O)cc1

Ki (Carbonic anhydrase 4): 170 nM
Ki (Carbonic anhydrase 2): 55 nM
Ki (Carbonic anhydrase 1): 3000 nM
SMILES: NS(=O)(=O)c1ccc(NSC(=S)N2CCOCC2)c(I)c1

Ki (Carbonic anhydrase 4): 90 nM
Ki (Carbonic anhydrase 2): 15 nM
Ki (Carbonic anhydrase 1): 560 nM
SMILES: NS(=O)(=O)c1cc(S(N)(=O)=O)c(NSC(=S)N2CCOCC2)cc1Cl
